Data taken from patent US20250009695A1, “COMPOSITIONS AND METHODS FOR PROMOTING GLYCOGEN SYNTHASE ACTIVITY AND AUGMENTING GLYCOGEN STORAGE CAPABILITY” (NANJING NUTRABUILDING BIO-TECH CO., LTD., priority 2021, published 2025).

What was measured:
[1] = Effect of oral BAIBA administration on liver and skeletal muscle glycogen levels in obese (HFD) mice; type: in vivo; settings: for hepatic glycogen levels (change, in words) / muscle glycogen levels (change, in words): HFD mice, better than exercise alone; for Liver glycogen / Muscle glycogen: obese mice on HFD, oral, week 9-16, P < 0.05 vs Model; for Liver glycogen: main lobe of liver; for Muscle glycogen: soleus muscle
Description: Post quarantine, animals were acclimatized for one week and subsequently the animals were randomized based on body weight stratification. Initially, mice were allocated broadly into two groups with one group receiving the Normal Diet (ND) representing normal subjects and the other receiving a defined High Fat Diet (HFD) representing obese subjects. The HFD was a defined lard-based diet procured from Research Diets, New Jersey, USA (Product No.—D12492, with 60 Kcal % from fat, 20 Kcal % from proteins, and 20 Kcal % from carbohydrates; Lot no. 20050105 and expiry date 30 Nov. 2020). The ND was a defined control diet procured from Hylasco Biotechnology Pvt. Ltd, manufactured by PMI Nutrition International (Batch no. MAY06202 and expiry date February 2021) containing similar nutrients as HFD but with 13 Kcal % from fat, 17 Kcal % from proteins, and […].
The mice in the respective groups were put on ND and HFD for 8 weeks starting at age of ˜8 weeks. Food was offered twice a week by replacing the left-over feed with fresh feed and total weekly feed consumption was calculated and expressed as g feed/day/animal. Bodyweight was recorded once a week. At the end of 8 weeks (Day 57), mean body weight was measured, and animals were randomized based on body weight stratification and grouped separately into respective ND and HFD groups shown in the following experimental design. After the feeding/induction period (Week 1 to 8), the treatment period was from Week 9 to Week 16. A total of 36 mice were randomly grouped into six groups with n=6 in each group. Control Group: Normal mice, maintained on normal diet for 8 weeks, receiving neither exercise nor L-BAIBA treatment. Model Group: Obese mice, maintained on HFD for 8 weeks, receiving neither exercise nor L-BAIBA treatment. Exercise Group: Obese mice, maintained on HFD for 8 weeks, receiving only exercise and no L-BAIBA treatment. BAIBA Group: Obese mice, maintained on HFD for 8 weeks, receiving only LBAIBA treatment and no exercise. Exercise+BAIBA Group: Obese mice, maintained on HFD for 8 weeks, receiving L-BAIBA treatment and exercise.
A regular treadmill (PowerMax) used by humans was availed for subjecting mice to daily exercise. A special lane box made of Perspex was used to fabricate the treadmill's running platform, forming a modified 6-lane rodent treadmill allowing 6 animals to run simultaneously. The mice in the specified groups were exercised daily throughout the treatment period (week 9-16). Exercise consisted of treadmill running at a speed 3.0 m/min with no inclination of the treadmill. Mice were allowed to freely explore the treadmill until each mouse had explored its lane and the treadmill was turned on with a slow increase in the speed until animals begin running at set speed. During the first week of the treatment period, as an introduction the mice were forced to running exercise for 8 minutes. Subsequently, the exercise duration was increased to 9 minutes during the following week. The exercise duration was finally set to 10 minutes daily for the rest of weeks. Exercise took place in a room separated from the actual housing room to which all mice were transferred and kept during the exercise procedures in order to minimize environmental confounders among the mice not subjected to the exercise protocol. […] Entire procedure was supervised by study personnel and no abnormal behavior of animals was observed. Forced treadmill exercise was carried out at preferred lux and noise free conditions.
After completion of 8 weeks of experimentation (at the end of treatment on the day 114), animals were euthanized using an overdose of isoflurane (20% v/v in propylene glycol in a glass vacuum desiccator). The whole soleus muscle tissues and a sample of the main lobe of the liver were used to measure glycogen content using a modified protocol described in Methods in Enzymology Vol. III (Colowick and Kaplan, 1957).

[2] = Effect of BAIBA on liver and skeletal muscle glycogen content in normal mice (ELISA kits); type: in vivo, C57 mice; settings: oral gavage 2 weeks, compared to Exercise group; for glycogen levels in liver tissue (change, in words): FIG. 1; for glycogen levels in muscle tissue (change, in words): FIG. 3
Method: (§1) SPF-grade male C57 mice (8 weeks old) were purchased from Nanjing Qinglongshan Laboratory Animal Breeding Center. Mice were housed individually in a steel cage in a room at 24° C. with a 12:12 h (Light:Dark) photoperiod and standard diet. Food and water were provided ad libitum. Forty mice were randomly divided into five groups. Control Group: Receiving neither exercise nor L-BAIBA treatment. Exercise Group: Receiving only exercise and no L-BAIBA treatment. BAIBA Group: Receiving only L-BAIBA treatment and no exercise. Pre-workout Group: Receiving L-BAIBA treatment before exercise. Post-workout Group: Receiving L-BAIBA treatment after exercise. Samples were administered orally (gavage volume was 0.1 mL/10 g per mouse) via a gavage tube for 2 weeks.
(§2) The exercise consisted of treadmill running at a speed of 3.0 m/min with no inclination of the treadmill. Mice were allowed to freely explore the treadmill until each mouse had explored its lane and the treadmill was turned on with a slow increase in the speed until animals begin running at set speed. During the first week of the treatment period, as an introduction the mice were forced to running exercise for 8 minutes. Subsequently, the exercise duration was increased to 9 minutes during the following week. The exercise duration was finally set to 10 minutes daily for the rest of weeks.
After 30 minutes of exercise on day 14th, mice were injected with 0.1 to 0.3 ml 1% thiopental sodium intraperitoneally in order to general anesthesia. The soleus of the hind limbs of mice and liver were taken to detect the content of glycogen contents and glycogen synthetase with ELISA Kits.

[3] = system: glycogen synthetase; assay: Effect of BAIBA on muscle glycogen synthetase content in normal mice (ELISA kits); type: in vivo, C57 mice; settings: L-BAIBA administration, oral gavage 2 weeks, soleus, FIG. 4
Method: as §1
as §2, with “weeks. […]” for “weeks.”

[4] = combination of L-BAIBA and exercise
[5] = L-BAIBA treatment and daily treadmill exercise
[6] = L-BAIBA treatment only, no exercise
[7] = Post-workout Group (L-BAIBA after exercise)
[8] = Pre-workout Group (L-BAIBA before exercise)

CC(CN)C(=O)O (stereo not drawn) [BAIBA, β-aminoisobutyric acid]
hepatic glycogen levels (change, in words) ([1]; L-BAIBA administration alone): significant increase | muscle glycogen levels (change, in words) ([1]; L-BAIBA administration alone): significant increase | hepatic glycogen levels (change, in words) [1, 4]: significant increase | muscle glycogen levels (change, in words) [1, 4]: significant increase | Liver glycogen [1, 5]: 9.95 ± 0.61 mg/g tissue | Muscle glycogen [1, 5]: 0.29 ± 0.08 mg/g tissue | Liver glycogen [1, 6]: 9.66 ± 1.19 mg/g tissue | Muscle glycogen [1, 6]: 0.31 ± 0.06 mg/g tissue | glycogen levels in liver tissue (change, in words) [2, 7]: increase | glycogen levels in muscle tissue (change, in words) [2, 7]: increase | glycogen levels in liver tissue (change, in words) [2, 8]: increase | glycogen levels in muscle tissue (change, in words) [2, 8]: increase | muscle glycogen synthetase content (change, in words) [3]: significant increase
